Measured values published in patent US12612410B2 (CHILDREN'S HOSPITAL MEDICAL CENTER, priority 2020, dated 2026).

How the values were obtained:
Assay type in all cases: biochemical
Conditions in all cases: isolated kinase, 33P-ATP
FLT3 = biological target: T1, FLT3 (Homo sapiens, UniProt P36888); assay: RBC HotSpot Kinase Assay, FLT3; design: purchased Reaction Biology (RBC), HotSpot kinase assay
T1 sequence (P36888 27-993): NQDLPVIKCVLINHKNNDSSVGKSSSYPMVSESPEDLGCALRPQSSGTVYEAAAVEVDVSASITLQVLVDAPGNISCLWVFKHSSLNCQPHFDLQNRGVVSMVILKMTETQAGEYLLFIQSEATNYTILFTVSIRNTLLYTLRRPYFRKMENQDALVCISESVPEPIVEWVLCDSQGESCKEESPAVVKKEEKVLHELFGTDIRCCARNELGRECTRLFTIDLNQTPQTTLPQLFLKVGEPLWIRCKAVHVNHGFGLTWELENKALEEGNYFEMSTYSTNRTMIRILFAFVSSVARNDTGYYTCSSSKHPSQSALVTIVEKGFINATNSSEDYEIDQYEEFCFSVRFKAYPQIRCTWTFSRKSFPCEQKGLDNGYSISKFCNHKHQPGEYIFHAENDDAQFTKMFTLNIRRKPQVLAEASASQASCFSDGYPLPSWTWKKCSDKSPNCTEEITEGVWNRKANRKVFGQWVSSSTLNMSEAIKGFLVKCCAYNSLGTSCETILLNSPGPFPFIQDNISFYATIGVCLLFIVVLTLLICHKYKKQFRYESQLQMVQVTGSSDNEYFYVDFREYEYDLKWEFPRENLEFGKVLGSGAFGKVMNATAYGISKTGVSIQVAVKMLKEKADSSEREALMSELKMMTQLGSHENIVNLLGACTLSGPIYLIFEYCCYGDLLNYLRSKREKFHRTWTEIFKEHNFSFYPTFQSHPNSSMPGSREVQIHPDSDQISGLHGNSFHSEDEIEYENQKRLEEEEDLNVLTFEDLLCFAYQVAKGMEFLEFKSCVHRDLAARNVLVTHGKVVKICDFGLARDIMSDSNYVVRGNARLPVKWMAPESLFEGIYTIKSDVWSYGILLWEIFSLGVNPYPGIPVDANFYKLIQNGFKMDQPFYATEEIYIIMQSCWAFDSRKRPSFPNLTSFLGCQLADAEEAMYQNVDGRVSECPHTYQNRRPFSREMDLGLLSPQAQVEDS
Text: (§1) This assay uses the isolated kinase enzyme. This assay is very useful for determining competition of the inhibitor for ATP and/or substrates and for measuring the kinetics of enzyme inhibition. […] Unlike kinase binding assays that measure competition for ATP, the HotSpot Kinase Assay is a functional assay that measures catalytic activity; as such it measures relative functional potency regardless of the mechanism of enzyme inhibition. This assay uses the form of the various enzymes that are easiest to express, which may not necessarily be the form of the enzyme that exist in the cell. (Sometimes the carboxy terminus has been truncated to aid in expression, or, if it is a receptor kinase, the enzyme itself is isolated from the other parts of the receptor that are involved in regulating kinase activity.)
(§2) The reagent used was as follows: Base Reaction buffer; 20 mM Hepes (pH 7.5), 10 mM MgCl2, 1 mM EGTA, 0.01% Brij35, 0.02 mg/ml BSA, 0.1 mM Na3VO4, 2 mM DTT, 1% DMSO. Required cofactors were added individually to each kinase reaction.
(§3) The reaction procedure was as follows: • 1) Substrates were prepared in freshly prepared Reaction Buffer. • 2) Any required cofactors were delivered to the substrate solution above. • 3) Kinase was delivered into the substrate solution and gently mixed. • 4) Compounds were delivered in 100% DMSO into the kinase reaction mixture by Acoustic technology (Echo550; nanoliter range), followed by incubation for 20 min at room temp. • 5)^33P-ATP was delivered into the reaction mixture to initiate the reaction. • 6) The mixture was incubated for 2 hours at room temperature. • 7) Kinase activity was detected by P81 filter-binding method.

IRAK1 = biological target: T2, IRAK1 (Homo sapiens, UniProt P51617); assay: RBC HotSpot Kinase Assay, IRAK1
T2 construct: purchased Reaction Biology (RBC), HotSpot kinase assay
Text: as §1, §2, §3

IRAK4 = biological target: T3, IRAK4 (Homo sapiens, UniProt Q9NWZ3); assay: RBC HotSpot Kinase Assay, IRAK4; design: purchased Reaction Biology (RBC), HotSpot kinase assay
T3 sequence (Q9NWZ3 1-460): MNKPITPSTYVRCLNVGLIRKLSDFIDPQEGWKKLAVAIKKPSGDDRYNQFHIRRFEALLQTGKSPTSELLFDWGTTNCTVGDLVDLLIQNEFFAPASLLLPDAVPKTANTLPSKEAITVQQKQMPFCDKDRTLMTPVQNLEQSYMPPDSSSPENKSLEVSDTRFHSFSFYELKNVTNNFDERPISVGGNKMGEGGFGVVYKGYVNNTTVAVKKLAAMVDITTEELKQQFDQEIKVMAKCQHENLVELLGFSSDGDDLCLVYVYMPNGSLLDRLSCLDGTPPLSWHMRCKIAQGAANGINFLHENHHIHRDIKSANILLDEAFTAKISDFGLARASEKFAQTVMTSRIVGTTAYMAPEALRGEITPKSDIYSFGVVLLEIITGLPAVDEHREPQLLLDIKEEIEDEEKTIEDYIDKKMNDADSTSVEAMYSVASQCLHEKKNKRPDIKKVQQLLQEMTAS
Text: as §1, §2, §3

T2 sequence (P51617 whole entry): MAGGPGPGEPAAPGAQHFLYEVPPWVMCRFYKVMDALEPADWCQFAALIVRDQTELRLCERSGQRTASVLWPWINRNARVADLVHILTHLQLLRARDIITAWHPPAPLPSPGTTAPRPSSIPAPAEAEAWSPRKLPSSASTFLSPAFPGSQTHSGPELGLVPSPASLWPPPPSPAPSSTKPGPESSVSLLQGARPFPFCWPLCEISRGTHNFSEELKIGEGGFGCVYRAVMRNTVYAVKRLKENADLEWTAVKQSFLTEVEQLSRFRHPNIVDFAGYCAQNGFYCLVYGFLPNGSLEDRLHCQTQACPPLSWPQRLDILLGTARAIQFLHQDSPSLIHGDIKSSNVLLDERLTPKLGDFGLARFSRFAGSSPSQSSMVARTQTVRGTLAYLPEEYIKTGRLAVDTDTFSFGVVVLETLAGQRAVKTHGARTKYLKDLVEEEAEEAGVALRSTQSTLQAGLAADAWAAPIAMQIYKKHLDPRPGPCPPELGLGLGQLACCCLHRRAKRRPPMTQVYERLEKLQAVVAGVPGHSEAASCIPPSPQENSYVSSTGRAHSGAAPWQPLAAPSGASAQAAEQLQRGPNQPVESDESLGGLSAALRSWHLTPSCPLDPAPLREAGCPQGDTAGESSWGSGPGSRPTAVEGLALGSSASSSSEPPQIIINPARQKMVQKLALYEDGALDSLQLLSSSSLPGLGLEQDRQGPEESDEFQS

Row | Structure (SMILES) | IC50 (FLT3) [nM] | IC50 (IRAK1) [nM] | IC50 (IRAK4) [nM]
1 | CC(C)(O)Cn1cc(-c2cn3c(-c4cccc(N[C@@H]5CCCNC5)n4)cnc3cn2)cn1 [Compound 46, (R)-2-methyl-1-(4-(3-(6-(piperidin-3-ylamino)pyridin-2-yl)imidazo[1,2-a]pyrazin-6-yl)-1H-pyrazol-1-yl)propan-2-ol] | < 0.5 | 3640 | 8
2 | CC1(C)CCNCC1Nc1cccc(-c2cnc3cnccn23)n1 (stereo not drawn) [Compound 74, N-(4,4-dimethylpiperidin-3-yl)-6-(imidazo[1,2-a]pyrazin-3-yl)pyridin-2-amine] | < 0.5 | 4780 | 14
3 | F[C@H]1CCNC[C@@H]1Nc1cccc(-c2cnc3cnccn23)n1 [Compound 70, N-((3S,4S)-4-fluoropiperidin-3-yl)-6-(imidazo[1,2-a]pyrazin-3-yl)pyridin-2-amine] | < 0.5 | 696 | 20
4 | CC1(c2cn3c(-c4cccc(N[C@H]5CCNC[C@@H]5F)n4)cnc3cn2)CC1 [Compound 6, N-((3S,4S)-3-fluoropiperidin-4-yl)-6-(6-(1-methylcyclopropyl)imidazo[1,2-a]pyrazin-3-yl)pyridin-2-amine] | 0.6 | 926 | 86
5 | FC(F)n1cc(-c2cn3c(-c4cccc(N[C@@H]5CCCNC5)n4)cnc3cn2)cn1 [Compound 44, (R)-6-(6-(1-(difluoromethyl)-1H-pyrazol-4-yl)imidazo[1,2-a]pyrazin-3-yl)-N-(piperidin-3-yl)pyridin-2-amine] | < 0.5 | 4280 | 37
6 | FC(F)(F)COc1cn2c(-c3cccc(N[C@@H]4CCCNC4)n3)cnc2cn1 [Compound 37, (R)-N-(piperidin-3-yl)-6-(6-(2,2,2-trifluoroethoxy)imidazo[1,2-a]pyrazin-3-yl)pyridin-2-amine] | < 0.5 | 273 | 11
7 | F[C@H]1CNCC[C@@H]1Nc1cccc(-c2cnc3cnc(OCC(F)(F)F)cn23)n1 [Compound 41, N-((3S,4S)-3-fluoropiperidin-4-yl)-6-(6-(2,2,2-trifluoroethoxy)imidazo[1,2-a]pyrazin-3-yl)pyridin-2-amine] | < 0.5 | 142 | 110
8 | CCOc1cn2c(-c3cccc(N[C@H]4CNC[C@@H]4F)n3)cnc2cn1 [compound 57, 6-(6-ethoxyimidazo[1,2-a]pyrazin-3-yl)-N-((3S,4S)-4-fluoropyrrolidin-3-yl)pyridin-2-amine] | < 0.5 | 165 | 2
9 | FC(F)n1cc(-c2cn3c(-c4cccc(N[C@H]5CNC[C@@H]5F)n4)cnc3cn2)cn1 [Compound 53, 6-(6-(1-(difluoromethyl)-1H-pyrazol-4-yl)imidazo[1,2-a]pyrazin-3-yl)-N-((3S,4S)-4-fluoropyrrolidin-3-yl)pyridin-2-amine] | 0.6 | 1250 | 12
10 | c1cc(N[C@H]2CNCC23CC3)nc(-c2cnc3cnccn23)c1 [Compound 71, (R)-N-(6-(imidazo[1,2-a]pyrazin-3-yl)pyridin-2-yl)-5-azaspiro[2.4]heptan-7-amine] | < 0.5 | 966 | 2
11 | C[C@H]1CNC[C@@H]1Nc1cccc(-c2cnc3cnccn23)n1 [Compound 73, 6-(imidazo[1,2-a]pyrazin-3-yl)-N-((3R,4S)-4-methylpyrrolidin-3-yl)pyridin-2-amine] | < 0.5 | 622 | 2
12 | FC(F)c1cn2c(-c3cccc(N[C@H]4CNCCC4(F)F)n3)cnc2cn1 [Compound 26, (S)-6-(6-(difluoromethyl)imidazo[1,2-a]pyrazin-3-yl)-N-(4,4-difluoropiperidin-3-yl)pyridin-2-amine] | < 0.5 | 103 | 0.7
13 | FC(F)(F)COc1cn2c(-c3cccc(N[C@H]4CNC[C@@H]4C(F)(F)F)n3)cnc2cn1 [Compound 39, 6-(6-(2,2,2-trifluoroethoxy)imidazo[1,2-a]pyrazin-3-yl)-N-((3R,4S)-4-(trifluoromethyl)pyrrolidin-3-yl)pyridin-2-amine] | < 0.5 | 301 | 8
14 | CC(C)(O)Cn1cc(-c2cn3c(-c4cccc(N[C@H]5CNC[C@@H]5F)n4)cnc3cn2)cn1 [Compound 54, 1-(4-(3-(6-(((3S,4S)-4-fluoropyrrolidin-3-yl)amino)pyridin-2-yl)imidazo[1,2-a]pyrazin-6-yl)-1H-pyrazol-1-yl)-2-methylpropan-2-ol] | < 0.5 | 2290 | 5
15 | CC(C)(O)c1cn2c(-c3cccc(N[C@@H]4CCNC4)n3)cnc2cn1 [Compound 27, (R)-2-(3-(6-(pyrrolidin-3-ylamino)pyridin-2-yl)imidazo[1,2-a]pyrazin-6-yl)propan-2-ol] | 0.8 | 116 | 0.9
16 | FC(F)c1cn2c(-c3cccc(N[C@H]4CNCC45CC5)n3)cnc2cn1 [Compound 20, (R)-N-(6-(6-(difluoromethyl)imidazo[1,2-a]pyrazin-3-yl)pyridin-2-yl)-5-azaspiro[2.4]heptan-7-amine] | < 0.5 | 150 | 2
17 | CC1(C)CCNCC1Nc1cccc(-c2cnc3cnc(C(F)F)cn23)n1 (stereo not drawn) [Compound 24, 6-(6-(difluoromethyl)imidazo[1,2-a]pyrazin-3-yl)-N-(4,4-dimethylpiperidin-3-yl)pyridin-2-amine] | < 0.5 | 236 | 2
18 | c1cc(N[C@@H]2CCCNC2)nc(-c2cnc3cnc(-c4cnn5ccccc45)cn23)c1 [Compound 47] | < 0.5 | 154 | 7
19 | CC1(C)CC(=O)N(c2cn3c(-c4cccc(N[C@H]5CNC[C@@H]5F)n4)cnc3cn2)C1 [Compound 63, 1-(3-(6-(((3S,4S)-4-fluoropyrrolidin-3-yl)amino)pyridin-2-yl)imidazo[1,2-a]pyrazin-6-yl)-4,4-dimethylpyrrolidin-2-one] | < 0.5 | 3430 | 238
20 | COc1cn2c(-c3cccc(N[C@H]4CNC[C@@H]4F)n3)cnc2cn1 [Compound 56, N-((3S,4S)-4-fluoropyrrolidin-3-yl)-6-(6-methoxyimidazo[1,2-a]pyrazin-3-yl)pyridin-2-amine] | 0.7 | 840 | 4
21 | C[C@@H]1CNC[C@H](Nc2cccc(-c3cnc4cnc(C5(C(F)(F)F)CC5)cn34)n2)C1 [Compound 15, N-((3R,5S)-5-methylpiperidin-3-yl)-6-(6-(1-(trifluoromethyl)cyclopropyl)imidazo[1,2-a]pyrazin-3-yl)pyridin-2-amine] | 3 | 736 | 1020
